Results on four molecules are retold here after patent US20140031787A1, “FEEDBACK-BASED DIURETIC OR NATRIURETIC MOLECULE ADMINISTRATION” (Medtronic, Inc., priority 2012, published 2014).

One test deals with male dog. In words: NICOM study: cardiac data in anesthetized, mechanically ventilated dog. The settings on record: phenylephrine followed by SNP; for cardiac output (CO): dobutamine incremental infusion doses, esmolol after dobutamine. The test is classed as in vivo. Here is the method: In one embodiment, the monitor comprises two electrodes (2601, 2602) which carry out two roles simultaneously. The first role is to deliver a continuous low-voltage alternating electrical current. The second role is to sample at a very fast rate the signal emanating from a patient. The signals are then analyzed to determine stroke volume (SV), heart rate (HR), cardiac output (CO), stroke volume variation (SVV) and other hemodynamic information. In one embodiment, the two electrodes 2601 and 2602 are placed on the surface of the chest of a human being 2604 to collect cardiac data. Although a human being 2604 is depicted, one of ordinary skill will understand that any mammal can be the subject. Further, one of ordinary skill in the art will appreciate that the two electrodes 2601 and 2602 may be placed on different locations of the body of the subject to obtain data.
A noninvasive cardiac output monitoring (NICOM) monitor was utilized to measure cardiac data from an anesthetized, mechanically ventilated, 54 lb, 42 inch (nose to base of tail) male dog. FIGS. 23-27 depict the cardiac data measured by the NICOM monitor.
The gap in data at 11:20 indicates electrocautery interference when the chest of the dog was opened. FIG. 24 depicts the data in response to sequential fluid boluses. An approximate 20% increase in CO was detected reflecting changes in both SV and HR. […] FIG. 26 depicts the cardiodepressant effect of the ultra-short beta-blocker esmolol given after dobutamine and recalibration. […] FIG. 27 depicts the response to increasing blood pressure with phenylephrine followed by decreasing blood pressure with sodium nitroprusside (SNP). Prior to this intervention, the dog chest had been opened and commercially available flow monitors had been implanted on the pulmonary artery (PA). Baseline PA flow data, which was measured by the implantable monitors, was 2.7 L/min. The PA flow data measured by the NICOM monitor was 2.812 L/min.

In a further test the test system is Dahl/SS rats. The test can be described thus: Pharmacodynamic study of VD by SQ infusion in Dahl/SS rats on 4% salt diet. The following applies: for blood pressure compared with 4% vehicle control group at week 3: week 3, p-value<0.05.
The test system of test [1] is canine model high-rate paced (HRP). In words: Pharmacodynamic study of VD by subcutaneous infusion in high-rate paced canine heart failure model.
Text: The pharmacodynamic effects of VD delivered by subcutaneous infusion were investigated in a canine model high-rate paced (HRP) to a heart rate of 240 bpm (ventricular pacing) over a period of 10 days to simulate HF. The canines were divided into a control group and an experimental group. The control group received a continuous subcutaneous infusion of the Tris buffer without VD over the course of the 10 day period. The experimental group received continuous subcutaneous infusion of VD dissolved in Tris buffer at a dosing rate of 100 ng/kg·min based upon the body weight of individual canines.
Seven days prior to the beginning of HRP (Day −7), all dogs were instrumented for ventricular pacing with an IPG (implantable pulse generator) including an RA (right atrium) and RV (right ventricle) lead, and a DSI (Digital Sciences International) device in the femoral artery for arterial blood pressure monitoring. Glomerular filtration rate (GFR) was measured by iohexol clearance on the day before the beginning of HRP (Day −1). On Day 0, high-rate pacing was initiated at a rate of 240 BPM (beats per minute) and maintained continuously over the course of a 10 day period (Days 0-10). After HRP was started on Day 0, urine, blood, and hemodynamic data was collected from conscious animals to serve as a baseline.
On Days 0-10, in combination with pacing, each animal received continuous subcutaneous (SQ) infusion of an agent (Tris buffer solution for control animals and vessel dilator in Tris buffer for experimental animals) delivered via external catheter and pump. SQ infusion was performed using Medtronic MiniMed® 407C pumps equipped with 3.0 mL reservoirs (#MMT-103A) and Medtronic Silhouette® combo infusion sets (#MMT373). GFR measurements were repeated on Day 9. On Day 10 (with HRP On), a pre-term monitor was performed for urine and hemodynamic data collection on conscious animals. Once the data was collected, HRP was turned off and the animals were euthanized.

Experimental for Dahl/SS rats: The pharmacodynamic effects of VD were investigated in a rat model. Forty male Dahl/SS rats were shipped to the animal facilities at PhysioGenix, Inc. (Milwaukee, Wis.). The rats were maintained on a low-salt diet and allowed to acclimate. After acclimation, animals had baseline parameters collected while on the low-salt diet. Baseline tail-cuff blood pressures and echocardiograms were measured. Baseline urine was collected for analysis of protein and albumin. Animals were then randomly assigned to one of 4 groups (10 animals per group):
1. Vehicle Control; low-salt diet, n=10 2. Vehicle Control; 4% salt diet, n=10 3. Vessel dilator, 100 ng/kg/min, 4% salt diet, n=10 4. Vessel dilator, 300 ng/kg/min, 4% salt diet, n=10
The vehicle control groups were infused with a citrate-mannitol-saline buffer (0.66 mg/mL citric acid, 6.43 mg/mL sodium citrate, 40 mg/mL mannitol, 9 mg/mL NaCl). The animals were on a Teklad 7034 (low-salt) diet or Dyets AIN-76A 4% salt diet, as indicated, throughout a 6 week course of the study and had free access to water.
Alzet® minipumps (Durect, Corp.) were surgically implanted on Days 1, 15, and 29 of the study to maintain continuous vehicle or drug dispensing at the desired dose for a total period of 6 weeks. Urine was collected at baseline, 2, 4 and 6 weeks after the initiation of the treatment to assess proteinuria and albuminuria. After six weeks of treatment, the animals were then euthanized.

In the case of `CC(CCc1ccc(O)cc1)NCCc1ccc(O)c(O)c1` (stereo not drawn) [dobutamine], the “cardiac output (CO)” value with male dog (NICOM monitor) is listed as “marked increase”.
Turning to `COC(=O)CCc1ccc(OCC(O)CNC(C)C)cc1` (stereo not drawn) [esmolol], in the test on male dog (NICOM monitor), the “cardiac output (CO)” value was “marked decline”.
As for `CNC[C@H](O)c1cccc(O)c1` [phenylephrine], in the test on male dog (NICOM monitor), the “cardiac output (CO)” value was “reduced” and the “heart rate (HR)” value is “reflex slowing”. The blood pressure result with male dog is listed as “elevated”.
With “vessel dilator (EVVPPQVLSEPNEEAGAALSPLPEVPPWTGEVSPAQR; Vessel dilator; UniProt P01160 56-92, looked up) [VD]”, the “average blood pressure compared with vehicle control group on 4% salt diet” value in the test with Dahl/SS rats (high-dose VD 300 ng/kg/min SQ infusion) and with Dahl/SS rats (low-dose VD 100 ng/kg/min SQ infusion) was “attenuated blood pressure” each time. Besides, the “blood pressure compared with 4% vehicle control group at week 3” value with Dahl/SS rats (high-dose VD 300 ng/kg/min) and in the test with Dahl/SS rats (low-dose VD 100 ng/kg/min) was “statistically significant decrease” throughout. In addition, the “decrease in blood pressure compared with 4% vehicle control group at week 5” value in the test with Dahl/SS rats (high-dose VD 300 ng/kg/min) and with Dahl/SS rats (low-dose VD 100 ng/kg/min) was “not as statistically significant” each time. In test [1] (VD 100 ng/kg·min SQ infusion, two-way repeated measures ANOVA), the “difference in pulmonary capillary wedge pressure between control and experimental group on Day 10” value is “does not appear to be statistically significant”. In test [1] (VD 100 ng/kg·min continuous SQ infusion), the “extent of increase in pulmonary capillary wedge pressure Day 0 to Day 10 compared with control group” value is recorded as “smaller than that observed in the control group”. In addition, the “increase in right atrial pressure compared with control group” value in test [1] (VD 100 ng/kg·min continuous SQ infusion, Day 10, p-value<0.05) is “significantly less than for the control group”. Moreover, in test [1] (VD 100 ng/kg·min continuous SQ infusion, HRP 240 bpm for 10 days), the “mean right atrial pressure, change from Day 0 to Day 10” value is “increased slightly”.
